The target of this test is T1, Calmodulin-sensitive adenylate cyclase (Bacillus anthracis, UniProt P40136).
T1 sequence (P40136 whole entry): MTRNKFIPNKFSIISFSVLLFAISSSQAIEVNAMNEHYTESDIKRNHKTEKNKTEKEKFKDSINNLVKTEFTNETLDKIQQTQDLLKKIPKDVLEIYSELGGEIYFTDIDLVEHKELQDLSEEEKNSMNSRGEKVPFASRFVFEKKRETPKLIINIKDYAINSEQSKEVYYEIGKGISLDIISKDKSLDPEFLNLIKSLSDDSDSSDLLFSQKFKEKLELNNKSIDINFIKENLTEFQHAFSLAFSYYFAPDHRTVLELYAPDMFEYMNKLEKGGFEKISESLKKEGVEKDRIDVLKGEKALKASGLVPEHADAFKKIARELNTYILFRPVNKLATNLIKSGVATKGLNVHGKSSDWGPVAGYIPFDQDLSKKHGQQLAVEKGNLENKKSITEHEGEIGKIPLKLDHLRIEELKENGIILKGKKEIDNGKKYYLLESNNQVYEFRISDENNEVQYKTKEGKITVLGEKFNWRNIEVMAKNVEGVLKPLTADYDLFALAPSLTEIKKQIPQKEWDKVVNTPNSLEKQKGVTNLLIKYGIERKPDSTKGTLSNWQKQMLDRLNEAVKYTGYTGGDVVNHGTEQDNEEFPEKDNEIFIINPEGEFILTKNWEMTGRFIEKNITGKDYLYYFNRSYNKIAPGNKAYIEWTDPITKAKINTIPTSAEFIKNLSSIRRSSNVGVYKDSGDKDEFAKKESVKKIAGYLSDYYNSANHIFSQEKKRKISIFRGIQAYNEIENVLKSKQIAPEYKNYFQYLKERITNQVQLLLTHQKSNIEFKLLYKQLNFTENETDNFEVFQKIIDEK
The experiment in a line: Inactivation of Bacillus anthracis edema factor in presence of CaM incubated for 10 to 240 mins by EnzChek pyrophosphate assay.

Take `Nc1cc(OC2CCN(C(=O)c3ccc(S(=O)(=O)F)cc3)CC2)ccn1`: the Ki was found to be 59.1 µM.

For the origin of these results see BindingDB's records for doi:10.1016/j.bmcl.2017.11.040 (Hawaii Biotech, 2018).
